Measured values as given in patent US20160090556A1, “PRODUCTS COMPRISING MALODOR REDUCTION MATERIALS” (The Procter & Gamble Company, priority 2014, published 2016).
Like-named read-outs stand apart in the source and are kept apart here.

Test: Liquid dish neat product liquid-air partition coefficient
Type: physicochemical
[1] = class code letter within Comment Code

Structure (SMILES)	Log of liquid dish neat product liquid-air partition coefficient (Comment Code K/L) [1]	Comment Code: Log of liquid dish neat product liquid-air partition coefficient (code letters K, L)	further results
CC(=O)/C=C/C1C(C)CCC(C)C1(C)C (stereo not drawn) [Material 71]	K (Log of liquid dish neat product liquid-air partition coefficient greater than or equal to −7)		
COC1CCCCCCCCCCC1 [Material 9]	K (Log of liquid dish neat product liquid-air partition coefficient greater than or equal to −7)		
CC(C)C(=O)OCCc1ccccc1 [Material 958]		K (Log of liquid dish neat product liquid-air partition coefficient greater than or equal to −7)	
COc1cc(C)ccc1O [Material 492]		K (Log of liquid dish neat product liquid-air partition coefficient greater than or equal to −7)	
CC1(CO)CC1CC1CC2CC2(C)C1(C)C (stereo not drawn) [Material 185]	K (Log of liquid dish neat product liquid-air partition coefficient greater than or equal to −7)	K (Log of liquid dish neat product liquid-air partition coefficient greater than or equal to −7)	
Cc1ccc2c(c1)CC(C)(CO)C2 (stereo not drawn) [Material 161]	K (Log of liquid dish neat product liquid-air partition coefficient greater than or equal to −7)		
CCOC1CCC(C(C)(C)CC)CC1 (stereo not drawn) [Material 12]		K (Log of liquid dish neat product liquid-air partition coefficient greater than or equal to −7)	
COc1ccccc1C=CC=O [Material 26]		K (Log of liquid dish neat product liquid-air partition coefficient greater than or equal to −7)	
CC(C)CC(=O)OCc1ccccc1 [Material 645]		K (Log of liquid dish neat product liquid-air partition coefficient greater than or equal to −7)	
CC(=O)C1=C(C)[C@@H]2C[C@@]3(C1)[C@H](C)CC[C@H]3C2(C)C [Material 1129]		K (Log of liquid dish neat product liquid-air partition coefficient greater than or equal to −7)	Comment Code: Log of liquid dish neat product liquid-air partition coefficient (codes K/L of the Comment Code, Table 1): K (Log of liquid dish neat product liquid-air partition coefficient greater than or equal to −7)
CC(=O)O[C@]1(C)CC[C@@]23C[C@@H]1C(C)(C)[C@@H]2CC[C@H]3C [Material 567]		K (Log of liquid dish neat product liquid-air partition coefficient greater than or equal to −7)	Log of liquid dish neat product liquid-air partition coefficient (Comment Code K/L): K (Log of liquid dish neat product liquid-air partition coefficient greater than or equal to −7)
CC1=CC2C(C(C)C)CCC(C)(O)C2CC1 (stereo not drawn) [Material 716]			Log of liquid dish neat product liquid-air partition coefficient (Comment Code K/L): K (Log of liquid dish neat product liquid-air partition coefficient greater than or equal to −7)
C=CC(C)=CCC=C(C)CCC=C(C)C [Material 710]			Log of liquid dish neat product liquid-air partition coefficient (Comment Code K/L): K (Log of liquid dish neat product liquid-air partition coefficient greater than or equal to −7)
CCC=CCC=CC=CC(=O)OCC [Material 1000]			Log of liquid dish neat product liquid-air partition coefficient (Comment Code K/L): K (Log of liquid dish neat product liquid-air partition coefficient greater than or equal to −7)
CC1=CC2(C=CC(C)O2)C(C(C)C)CC1 (stereo not drawn) [Material 68]	K (Log of liquid dish neat product liquid-air partition coefficient greater than or equal to −7)		
C=C(C)C1CC=C(C=O)CC1 (stereo not drawn) [Material 946]			Log of liquid dish neat product liquid-air partition coefficient (Comment Code K/L): K (Log of liquid dish neat product liquid-air partition coefficient greater than or equal to −7)
CC(C)c1ccc2ncccc2c1 [Material 778]			Log of liquid dish neat product liquid-air partition coefficient (Comment Code K/L): K (Log of liquid dish neat product liquid-air partition coefficient greater than or equal to −7)
CC1CC=CCCCCCCCC(=O)OCC1 (stereo not drawn) [Material 1099]			Log of liquid dish neat product liquid-air partition coefficient (Comment Code K/L): K (Log of liquid dish neat product liquid-air partition coefficient greater than or equal to −7)
CCCCCCC#CC(OC)OC [Material 3]	K (Log of liquid dish neat product liquid-air partition coefficient greater than or equal to −7)		
C=CCc1ccc(OC)cc1 [Material 119]	K (Log of liquid dish neat product liquid-air partition coefficient greater than or equal to −7)		
CC(=O)C=CC1C(C)=CCC(C)C1(C)C (stereo not drawn) [Material 704]			Log of liquid dish neat product liquid-air partition coefficient (Comment Code K/L): K (Log of liquid dish neat product liquid-air partition coefficient greater than or equal to −7)
C=C(C=O)C(C)CCC=C(C)C (stereo not drawn) [Material 819]		K (Log of liquid dish neat product liquid-air partition coefficient greater than or equal to −7)	
CCCCC/C=C/C=C\C(=O)OCC [Material 942]			Log of liquid dish neat product liquid-air partition coefficient (Comment Code K/L): K (Log of liquid dish neat product liquid-air partition coefficient greater than or equal to −7)
COc1ccc(COC(C)=O)cc1 [Material 664]		K (Log of liquid dish neat product liquid-air partition coefficient greater than or equal to −7)	
Cc1ccc2c(c1)OCC(=O)CO2 [Material 17]	K (Log of liquid dish neat product liquid-air partition coefficient greater than or equal to −7)		

Structure (SMILES)	Log of liquid dish neat product liquid-air partition coefficient (Comment Code K/L) [1]	Comment Code: Log of liquid dish neat product liquid-air partition coefficient (code letters K, L)	further results
C=C1C2CCC(C)(OCC)C1CCC2(C)C (stereo not drawn) [Material 606]			Log of liquid dish neat product liquid-air partition coefficient (Comment Code K/L): K (Log of liquid dish neat product liquid-air partition coefficient greater than or equal to −7)
Cc1ccc(C(C)(C)O)cc1 [Material 4]	K (Log of liquid dish neat product liquid-air partition coefficient greater than or equal to −7)		
CC(C)=CCCC(C)=CCCc1ccncc1 [Material 135]	K (Log of liquid dish neat product liquid-air partition coefficient greater than or equal to −7)		
CCCCCCOC(=O)c1ccccc1 [Material 271]	K (Log of liquid dish neat product liquid-air partition coefficient greater than or equal to −7)		
CCCCCCCCC1CCC(=O)O1 (stereo not drawn) [Material 330]	K (Log of liquid dish neat product liquid-air partition coefficient greater than or equal to −7)		
COC1(OC)CCCCCCCCCCC1 [Material 10]	K (Log of liquid dish neat product liquid-air partition coefficient greater than or equal to −7)		
C=CC(C)(CCC=C(C)C)OC(=O)C(C)C (stereo not drawn) [Material 149]	K (Log of liquid dish neat product liquid-air partition coefficient greater than or equal to −7)		
COC(OC)C(C)c1ccccc1 (stereo not drawn) [Material 256]	K (Log of liquid dish neat product liquid-air partition coefficient greater than or equal to −7)		
CCCCCCCCCCOC(=O)CC [Material 471]	K (Log of liquid dish neat product liquid-air partition coefficient greater than or equal to −7)		
CCC(=O)OCCc1ccccc1 [Material 835]		K (Log of liquid dish neat product liquid-air partition coefficient greater than or equal to −7)	
C[C@@H]1CC[C@H]2C(C)(C)[C@H]3C[C@@]12CC1OC(C)(C)OC13C (stereo partly drawn) [Material 674]		K (Log of liquid dish neat product liquid-air partition coefficient greater than or equal to −7)	Log of liquid dish neat product liquid-air partition coefficient (Comment Code K/L): K (Log of liquid dish neat product liquid-air partition coefficient greater than or equal to −7)
CC(C)C(=O)OC1CC2CCC1(C)C2(C)C (stereo not drawn) [Material 229]	K (Log of liquid dish neat product liquid-air partition coefficient greater than or equal to −7)	K (Log of liquid dish neat product liquid-air partition coefficient greater than or equal to −7)	
C=CCOCCc1ccccc1 [Material 744]		K (Log of liquid dish neat product liquid-air partition coefficient greater than or equal to −7)	
CC(C=O)Cc1ccc(C(C)(C)C)cc1 (stereo not drawn) [Material 162]	K (Log of liquid dish neat product liquid-air partition coefficient greater than or equal to −7)		
CCCCCCCCC=CC#N [Material 827]			Log of liquid dish neat product liquid-air partition coefficient (Comment Code K/L): K (Log of liquid dish neat product liquid-air partition coefficient greater than or equal to −7)
CC(CO)C1CCCCCCCCCCC1 (stereo not drawn) [Material 252]	K (Log of liquid dish neat product liquid-air partition coefficient greater than or equal to −7)		
CCCCCCCCCCCC(=O)OC(C)C [Material 197]	K (Log of liquid dish neat product liquid-air partition coefficient greater than or equal to −7)		
C=CC(C)(O)CCC=C(C)CCC=C(C)C (stereo not drawn) [Material 63]	K (Log of liquid dish neat product liquid-air partition coefficient greater than or equal to −7)		
C=C1C=CC(C(C)C)CCC(C)=CCC1 (stereo not drawn) [Material 296]	K (Log of liquid dish neat product liquid-air partition coefficient greater than or equal to −7)		
C=CCCCCCCC/C=C/CC#N [Material 137]	K (Log of liquid dish neat product liquid-air partition coefficient greater than or equal to −7)		
CC(=O)CCc1ccccc1 [Material 640]		K (Log of liquid dish neat product liquid-air partition coefficient greater than or equal to −7)	
Cc1n[nH]cc1-c1ccccc1 [Material 808]		K (Log of liquid dish neat product liquid-air partition coefficient greater than or equal to −7)	
C=CCCCCCCCCC(=O)OCC [Material 381]	K (Log of liquid dish neat product liquid-air partition coefficient greater than or equal to −7)		
CC(=O)c1cc(C(C)(C)C)cc2c1CCC2(C)C [Material 563]			Log of liquid dish neat product liquid-air partition coefficient (Comment Code K/L): K (Log of liquid dish neat product liquid-air partition coefficient greater than or equal to −7)
